Results on 24 compounds are retold here after US20240101548A1, “HYDROXAMATE COMPOUND, PREPARATION METHOD THEREFOR AND APPLICATION THEREOF” (SHENZHEN CHIPSCREEN BIOSCIENCES CO., LTD., priority 2020, published 2024).

pIC50: −log10 of the molar value.

Assay [1] has as its system IL-2-induced JAK1/JAK3 signal pathway. As to the kind of experiment: IL-2-induced proliferation of KHYG-1 cells (JAK1/JAK3 signal). It counts as cell-based, human. The conditions noted are these: Homo sapiens; KHYG-1 cell proliferation, IL-2 10 ng/mL, 72 hours; read-out: Inhibition activity IC50 on IL-2-induced JAK1/JAK3 signal pathway. The source says:
The main physiological function of cytokine IL-2 is to stimulate and maintain the proliferation and differentiation of T cells. Generally, IL-2 dependent T cells cannot survive in in-vitro culture for a long time, but the addition of IL-2 can make them continue to proliferate. The signal pathway induced by IL-2 coupling with its receptor is mediated by JAK1/JAK3-STAT5, so the inhibitor of JAK1 and/or JAK3 can inhibit the proliferation of IL-2 dependent cells.
Human natural killer cell lymphoma cell line KHYG-1 was commercially available from Health Science Research Resources Bank (HSRRB), and relevant culture conditions referred to those from HSRRB.
The inhibition rate of the tested compound on IL-2-induced cell proliferation was calculated using Microsoft Excel.
After culture at 37° C. and 5% CO2 for 72 hours, alamarBlue™ Cell Viability Reagent was added to each well following the instructions.
The well in which neither compound nor cytokine was added was designated as 0% control well, and the fluorescence value in the wells in which the final concentration of compound was 0 was designated as 100% control. The inhibition activity […] of the tested compound on JAK1/JAK3 could be calculated from the inhibition rate of the tested compound on IL-2-induced cell proliferation at different doses.

For assay [2], the system named is EPO-induced JAK2 signal pathway. As to the kind of experiment: EPO-induced proliferation of UT-7 cells (JAK2 signal). The assay is classed as cell-based, human. Particulars: Homo sapiens, UT7; UT-7 cell proliferation, EPO 10 ng/mL, 72 hours; read-out: Inhibition activity IC50 on EPO-induced JAK2 signal pathway. How it is done: The cytokine EPO, i.e. erythropoietin, can promote the proliferation and division of erythroid progenitor cells, and the signal pathway induced by EPO coupling with its receptor is mediated by JAK2-STAT5.
Human promegakaryocytic leukemia cell line UT-7 was commercially available from Cell Resource Center, Institute of Basic Medicine, Chinese Academy of Medical Sciences. The culture medium was RPIM1640 containing 10% FBS, and EPO was added for a final concentration of 10 ng/mL.
The inhibition rate of the tested compound on EPO-induced cell proliferation was calculated using Microsoft Excel.
UT-7 cell line was inoculated in 96-well plate with flat bottom at 15000 cells per well, each well was added with 10 ng/mL of human recombinant EPO (Human EPO PEPROTECH 100-64-10UG), along with tested compound respectively for a final concentration of 0, 100, 1000 or 10000 nM. After culture at 37° C. and 5% CO2 for 72 hours, alamarBlue™ Cell Viability Reagent was added to each well following the instructions. After incubation at 37° C. for color reaction, the fluorescence value at Ex530/Em590 was detected using Tecan Spark™ 10M multimode microplate reader.
The well in which neither compound nor cytokine was added was designated as […], and the fluorescence value in the wells in which the final concentration of compound was 0 was designated as 100 control. The inhibition activity […] ofthe tested compound on JAK2 could be calculated from the inhibition rate ofthe tested compound on EPO-induced cell proliferation at different doses.

Consider `CONC(=O)c1cnc(Nc2cccc(F)n2)cc1Nc1cccc(Cl)c1N(C)S(C)(=O)=O` [Example 76, 4-((3-chloro-2-(N-methylmethanesulfonamido)phenyl)amino)-6-((6-fluoropyridin-2-yl)amino)-N-methoxy nicotinamide], for which the pIC50 in assay [1] and in assay [2] was below 5.00 in each case.
Regarding `CONC(=O)c1cnc(Nc2ccc(F)cn2)cc1Nc1cccc(Cl)c1N(C)S(C)(=O)=O` [Example 77, 4-((3-chloro-2-(N-methylmethanesulfonamido)phenyl)amino)-6-((5-fluoropyridin-2-yl)amino)-N-methoxy nicotinamide], the pIC50 in assay [1] and in assay [2] was below 5.00 throughout.
Consider `CONC(=O)c1cnc(Nc2cccnc2OC)cc1Nc1cccc(Cl)c1N(C)S(C)(=O)=O` [Example 78, 4-((3-chloro-2-(N-methylmethanesulfonamido)phenyl)amino)-N-methoxy-6-((2-methoxypyridin-3-yl)amino)nicotinamide], for which the pIC50 in assay [1] and in assay [2] was below 5.00 throughout.
As for `CONC(=O)c1cnc(NC(=O)C2CC2)cc1Nc1cccc(C(F)(F)F)c1N(C)S(C)(=O)=O` [Example 82, 6-(cyclopropylcarboxamido)-N-methoxy-4-((2-(N-methylmethanesulfonamido)-3-(trifluoromethyl)phenyl)amino)nicotinamide], the pIC50 in assay [1] and in assay [2] was below 5.00 throughout.
Turning to `CONC(=O)c1cnc(Nc2cccc(F)n2)cc1Nc1cccc(C(F)(F)F)c1N(C)S(C)(=O)=O` [Example 83, 6-((6-fluoropyridin-2-yl)amino)-N-methoxy-4-((2-(N-methylmethanesulfonamido)-3-(trifluoromethyl)phenyl)amino)nicotinamide], the pIC50 in assay [1] and in assay [2] was below 5.00 throughout.
As for `CONC(=O)c1cnc(Nc2ccc(F)cn2)cc1Nc1cccc(C(F)(F)F)c1N(C)S(C)(=O)=O` [Example 84, 6-((5-fluoropyridin-2-yl)amino)-N-methoxy-4-((2-(N-methylmethanesulfonamido)-3-(trifluoromethyl)phenyl)amino)nicotinamide], the pIC50 in assay [1] and in assay [2] was below 5.00 throughout.
For the compound `CONC(=O)c1cnc(NC(=O)C2CC2)cc1Nc1cccc(C2CC2)c1N(C)S(C)(=O)=O` [Example 85, 6-(cyclopropylcarboxamido)-4-((3-cyclopropyl-2-(N-methylmethanesulfonamido)phenyl)amino)-N-methoxy nicotinamide], the pIC50 in assay [1] and in assay [2] was below 5.00 throughout.
For `CONC(=O)c1cnc(Nc2cccc(F)n2)cc1Nc1cccc(C2CC2)c1N(C)S(C)(=O)=O` [Example 86], the pIC50 in assay [1] and in assay [2] was below 5.00 throughout.
As to `CONC(=O)c1cnc(NC(=O)C2CC2)cc1Nc1cccc(-c2cnn(C)c2)c1N(C)S(C)(=O)=O` [Example 87, 6-(cyclopropylcarboxamido)-N-methoxy-4-((3-(1-methyl-1H-pyrazol-4-yl)-2-(N-methylmethanesulfonamido)phenyl)amino)nicotinamide], the pIC50 in assay [1] and in assay [2] was below 5.00 each time.
`CONC(=O)c1cnc(Nc2cccc(F)n2)cc1Nc1cccc(-c2cnn(C)c2)c1N(C)S(C)(=O)=O` [Example 88, 6-((6-fluoropyridin-2-yl)amino)-N-methoxy-4-((3-(1-methyl-1H-pyrazol-4-yl)-2-(N-methylmethanesulfonamido)phenyl)amino)nicotinamide]: the pIC50 in assay [1] and in assay [2] was below 5.00 in each case.
As for `CONC(=O)c1cnc(NC(=O)C2CC2)cc1Nc1ccccc1S(C)(=O)=O` [Example 89], the pIC50 in assay [1] and in assay [2] was below 5.00 each time.
For the compound `CN(c1ccccc1Nc1cc(NC(=O)C2CC2)ncc1C(=O)NOC(C)(C)C)S(C)(=O)=O` [Example 91, N-(t-butoxy)-6-(cyclopropylcarboxamido)-4-((2-(N-methylmethanesulfonamido)phenyl)amino)nicotinamide], the pIC50 in assay [1] and in assay [2] was below 5.00 in each case.
As for `CONC(=O)c1cnc(Nc2ccc(C(F)(F)F)cn2)cc1Nc1ccccc1N(C)S(C)(=O)=O` [Example 92, N-methoxy-4-((2-(N-methylmethanesulfonamido)phenyl)amino)-6-((5-(trifluoromethyl)pyridin-2-yl)amino)nicotinamide], the pIC50 in assay [1] and in assay [2] was below 5.00 each time.
For the compound `CONC(=O)c1cnc(NC(=O)[C@H]2CC2(C)C)cc1Nc1ccc(C2CC2)cc1N(C)S(C)(=O)=O` [Example 94, (S)-4-((4-cyclopropyl-2-(N-methylmethanesulfonamido)phenyl)amino)-6-(2,2-dimethylcyclopropyl-1-carboxamido)-N-methoxy nicotinamide], the pIC50 in assay [1] and in assay [2] was below 5.00 each time.
As for `CCONC(=O)c1cnc(Nc2ccccn2)cc1Nc1cc(F)c(C2CC2)cc1N(C)S(C)(=O)=O` [Example 96, 4-((4-cyclopropyl-5-fluoro-2-(N-methylmethanesulfonamido)phenyl)amino)-N-ethoxy-6-(pyridin-2-ylamino)nicotinamide], the pIC50 in assay [1] and in assay [2] was below 5.00 in each case.
For the compound `CCONC(=O)c1cnc(Nc2cc(C)c(F)cn2)cc1Nc1cc(F)c(C2CC2)cc1N(C)S(C)(=O)=O` [Example 99, 4-((4-cyclopropyl-5-fluoro-2-(N-methylmethanesulfonamido)phenyl)amino)-N-ethoxy-6-((5-fluoro-4-methylpyridin-2-yl)amino)nicotinamide], the pIC50 in assay [1] and in assay [2] was below 5.00 each time.
In the case of `CONC(=O)c1cnc(Nc2ccc(C#N)cc2)cc1Nc1ccccc1N(C)S(C)(=O)=O` [Example 103, 6-((4-cyanophenyl)amino)-N-methoxy-4-((2-(N-methylmethanesulfonamido)phenyl)amino)nicotinamide], the pIC50 in assay [1] and in assay [2] was below 5.00 in each case.
As for `CONC(=O)c1cnc(Nc2ccc(F)cc2)cc1Nc1ccccc1N(C)S(C)(=O)=O` [Example 104, 6-((4-fluorophenyl)amino)-N-methoxy-4-((2-(N-methylmethanesulfonamido)phenyl)amino)nicotinamide], the pIC50 in assay [1] and in assay [2] was below 5.00 in each case.
For the compound `CONC(=O)c1cnc(NC(=O)[C@H]2CC2(C)C)cc1Nc1ccccc1N(C)S(C)(=O)=O` [Example 105, (S)-6-(2,2-dimethylcyclopropyl-1-carboxamido)-N-methoxy-4-((2-(N-methylmethanesulfonamido)phenyl)amino)nicotinamide], the pIC50 in assay [1] and in assay [2] was below 5.00 throughout.
For the compound `CONC(=O)c1cnc(Nc2ccc(C)cn2)cc1Nc1ccc(C)cc1N(C)S(C)(=O)=O` [Example 107, N-methoxy-4-((4-methyl-2-(N-methylmethanesulfonamido)phenyl)amino)-6-((5-methylpyridin-2-yl)amino)nicotinamide], the pIC50 in assay [1] and in assay [2] was below 5.00 in each case.
Consider `CCONC(=O)c1cnc(Nc2cccc(F)n2)cc1Nc1ccccc1NS(C)(=O)=O` [Example 117, N-ethoxy-6-((6-fluoropyridin-2-yl)amino)-4-((2-(methanesulfonamido)phenyl)amino)nicotinamide], for which the pIC50 in assay [1] and in assay [2] was below 5.00 each time.
As for `CCONC(=O)c1cnc(NC(=O)C2CC2)cc1Nc1cc(C)c(C2CC2)cc1N(C)S(C)(=O)=O` [Example 120, 6-(cyclopropylcarboxamido)-4-((4-cyclopropyl-5-methyl-2-(N-methylmethanesulfonamido)phenyl)amino)-N-ethoxy nicotinamide], the pIC50 in assay [1] and in assay [2] was below 5.00 in each case.
As for `CCONC(=O)c1cnc(Nc2cc(C)nc(C)n2)cc1Nc1cc(C)c(C2CC2)cc1N(C)S(C)(=O)=O` [Example 121], the pIC50 in assay [1] and in assay [2] was below 5.00 each time.
With `CCONC(=O)c1cnc(Nc2ccc(CO)cn2)cc1Nc1ccc(C2CC2)cc1N(C)S(C)(=O)=O` [Example 122, 4-((4-cyclopropyl-2-(N-methylmethanesulfonamido)phenyl)amino)-N-ethoxy-6-((5-(hydroxymethyl)pyridin-2-yl)amino)nicotinamide], the pIC50 in assay [1] and in assay [2] was below 5.00 each time.
